Data on 1 compound can be found in patent US20140221301A1, “COMBINATION TREATMENT FOR CANCER” (priority 2011, published 2014).

Data set [1] relates to OCI-AML2 human leukemia cells. It is filed as in vivo, SCID mice. As to the method: FIG. 3. Tigecycline has anti-leukemia activity in vivo. (A, B) Human leukemia cells (OCI-AML2) were injected subcutaneously into the flank of SCID mice. Seven days after injection, once tumors were palpable, mice were treated with tigecycline (50 mg/kg or 100 mg/kg twice daily by i.p. injection) or vehicle control (n=10 per group). Fourteen days after injection of cells, mice were sacrificed, tumors excised and the volume and mass of the tumors were measured. The tumor mass and the mean volume+SD are shown. Differences in tumor volume and mass were analyzed by an unpaired t-test: *p<0.001. (C) Tumours from two control mice, and three tigecycline-treated mice were excised after 5 days of treatment and total proteins were extracted and analyzed by western blotting for Cox-1, Cox-2, Cox-4, and tubulin. (D) Primary cells from three AML patients were injected intra-femorally into the right femur of female sub-lethally irradiated NOD/SCID mice. Three weeks after injection mice were treated with tigecycline (100 mg/kg by i.p. injection daily) or vehicle control (n=10 per group) for three weeks. Following treatment, human leukemia cell engraftment in the injected right femur was measured by FACS analysis for human CD45^+CD19^−CD33^+ cells. Data represent mean±SD of engrafted human cells. Cells from one patient experiment were used to assess secondary engraftment in a second generation of NOD/SCID mice. Equal numbers of viable leukemia cells from bone marrow of control and tigecycline treated mice were injected into irradiated NOD/SCID mice, which were not treated with tigecycline. Six weeks later, human leukemia cell engraftment in the injected right femur was measured by FACS analysis for human CD45^+CD19^−CD33^+cells. (*p<0.005, Student's t-test).
OCI-AML2 human leukemia cells (1×10^6) were injected subcutaneously into the flanks of SCID mice (Ontario Cancer Institute, Toronto, ON). Seven days after injection, once tumours were palpable, mice were treated with tigecycline twice daily (50 mg/kg or 100 mg/kg by i.p. injection) or vehicle control (n=10 per group) for 14 days. Tumor volume (tumor length x width^2×0.5236) was measured three times a week using calipers. Twenty-one days after injection of cells, mice were sacrificed, tumors excised and the volume and mass of the tumors were measured.
Given the effects of tigecycline as a potential anti-leukemia agent, tigecycline in mouse models of leukemia was evaluated. To evaluate the anti-tumor efficacy of tigecycline in vivo, human OCI-AML2 leukemia cells were injected into the flank of SCID mice. […] Tumor volume and mass were measured over time (FIG. 3A, B). […]

Data set [2] concerns leukemia cell lines. The data set can be described thus: Cell growth and viability, MTS assay, leukemia cell lines. In kind it is cell-based. To be noted: 72 hours, tested leukemia cell lines. The procedure:
FIG. 1. […] (A) TEX and (B) M9-ENL1 cells were plated in 96-well plates and drugs were added to the wells (5 μL per well) for final concentrations of 10 μM (shown) and 1 μM. Cell growth and viability was measured at 48 hours (M9-ENL-1) and 72 hours (TEX) by MTS assay. Cell viability is shown for each compound as a percent of cells treated with DMSO alone. (C) Leukemia, (D) myeloma, and (E) solid tumor cell lines were seeded in 96-well plates and then treated with increasing concentrations of tigecycline. Cell growth and viability was measured at 72 hours by MTS assay. Cell viability is expressed as mean percentage plus or minus SD (n=3) relative to vehicle-treated cells. […] Cell viability was measured at 72 hours by MTS assay. Cell viability is expressed as mean percentage plus or minus SD (n=3) relative to vehicle-treated cells.
Human leukemia (OCI-AML2, HL60, U937) cell lines were maintained in RPMI 1640 medium. Myeloma (LP-1, KMS11, 8226, JJN3, OP-M2) cell lines were maintained in Iscove's media. […]
Cell growth and viability was assessed by the MTS assay (Promega, Madison, Wis.) according to the manufacturer's instructions. Apoptosis and cell death was measured by Annexin V-fluroscein isothiocyanate (FITC; Biovision Research Products, Mountain View, Calif.), propidium iodide staining and flow cytometry according to the manufacturer's instructions and as previously described^30.

[3] abbreviates: 50 mg/kg or 100 mg/kg twice daily i.p., 14 days.

For the compound `CN(C)c1cc(NC(=O)CNC(C)(C)C)c(O)c2c1C[C@H]1C[C@H]3[C@H](N(C)C)C(O)=C(C(N)=O)C(=O)[C@@]3(O)C(O)=C1C2=O` [tigecycline], the “expression of Cox-1 and Cox-2 relative to Cox-4 in tumours” value in data set [1] (50 mg/kg bid for 5 days, western blotting) is reported as “preferential decreased expression”. In data set [1] (setting [3]), the “decrease of tumor mass compared to vehicle control” value is given as “up to 70%” and the “decrease of tumor volume compared to vehicle control” value is on record as “up to 70%”. Besides, in data set [1] (mouse, in vivo), the “toxicity in treated mice” value is listed as “No evidence of toxicity”. Further, the IC50 (usually the concentration that gives 50% inhibition) in data set [2] lay in the range of 5 to 8 µM.
